Patent publication US12295936B2, “Immunomodulating urea azalides” (Zoetis Services LLC, priority 2020, dated 2025)

Assays:
Experiment in all cases: LPS-stimulated whole bovine blood assay, MSD cytokine detection
Format in all cases: cell-based
[1] = tested on: TNF-α; details: Bos taurus, LPS-stimulated bovine whole blood; read-out: TNF-α (IC50 μM)
[2] = tested on: IL-6; details: Bos taurus, LPS-stimulated bovine whole blood; read-out: IL-6 (IC50 μM)
Source text: In order to correlate RNA sequencing data to cytokine changes the whole blood assay was utilized. […] The enhancement result represents an overall stimulation of cytokine levels due to cellular stress or potential toxicity with increasing concentrations of the compound, representing a typical bell shape response curve for immunomodulatory activity.

[3] = tested on: IL-1β; details: overstimulation of IL-1β, LPS-stimulated bovine whole blood

IC50 [1] [µM] | IC50 [2] [µM] | SMILES | IL-1β OS of LPS [3] [µM]
32 | 35 | CCCNC[C@]1(O)[C@H](C)O[C@@H](O[C@H]2[C@H](C)[C@@H](O[C@@H]3O[C@H](C)C[C@H](N(Cc4cccnc4)C(=O)N(C)c4ccccc4)[C@H]3O)[C@](C)(O)C[C@@H](C)CN[C@H](C)[C@@H](O)[C@](C)(O)[C@@H](CC)OC(=O)[C@@H]2C)C[C@@]1(C)OC [Example H-71, 1-((2S,3R,4S,6R)-2-(((2R,3S,4R,5R,8R,10R,11R,12S,13S,14R)-2-ethyl-3,4,10-trihydroxy-13-(((2R,4R,5S,6S)-5-hydroxy-4-methoxy-4,6-dimethyl-5-((propylamino)methyl)tetrahydro-2H-pyran-2-yl)oxy)-3,5,8,10,12,14-hexamethyl-15-oxo-1-oxa-6-azacyclopentadecan-11-yl)oxy)-3-hydroxy-6-methyltetrahydro-2H-pyran-4-yl)-3-methyl-3-phenyl-1-(pyridin-3-ylmethyl)urea] | 16
179 | > 500 | CCCNC[C@]1(O)[C@H](C)O[C@@H](O[C@H]2[C@H](C)[C@@H](O[C@@H]3O[C@H](C)C[C@H](N(C)C(=O)Nc4ccccc4OC)[C@H]3O)[C@](C)(O)C[C@@H](C)CN[C@H](C)[C@@H](O)[C@](C)(O)[C@@H](CC)OC(=O)[C@@H]2C)C[C@@]1(C)OC [Example H-76, 1-((2S,3R,4S,6R)-2-(((2R,3S,4R,5R,8R,10R,11R,12S,13S,14R)-2-ethyl-3,4,10-trihydroxy-13-(((2R,4R,5S,6S)-5-hydroxy-4-methoxy-4,6-dimethyl-5-((propylamino)methyl)tetrahydro-2H-pyran-2-yl)oxy)-3,5,8,10,12,14-hexamethyl-15-oxo-1-oxa-6-azacyclopentadecan-11-yl)oxy)-3-hydroxy-6-methyltetrahydro-2H-pyran-4-yl)-3-(2-methoxyphenyl)-1-methylurea] | 100
> 250 | 47 | CCCNC[C@]1(O)[C@H](C)O[C@@H](O[C@H]2[C@H](C)[C@@H](O[C@@H]3O[C@H](C)C[C@H](N(C)C(=O)Nc4ccccc4C)[C@H]3O)[C@](C)(O)C[C@@H](C)CN[C@H](C)[C@@H](O)[C@](C)(O)[C@@H](CC)OC(=O)[C@@H]2C)C[C@@]1(C)OC [Example H-81, 1-((2S,3R,4S,6R)-2-(((2R,3S,4R,5R,8R,10R,11R,12S,13S,14R)-2-ethyl-3,4,10-trihydroxy-13-(((2R,4R,5S,6S)-5-hydroxy-4-methoxy-4,6-dimethyl-5-((propylamino)methyl)tetrahydro-2H-pyran-2-yl)oxy)-3,5,8,10,12,14-hexamethyl-15-oxo-1-oxa-6-azacyclopentadecan-11-yl)oxy)-3-hydroxy-6-methyltetrahydro-2H-pyran-4-yl)-1-methyl-3-(o-tolyl)urea] | 39
8 | 16 | CCCNC[C@]1(O)[C@H](C)O[C@@H](O[C@H]2[C@H](C)[C@@H](O[C@@H]3O[C@H](C)C[C@H](N(C)C(=O)N4Cc5ccccc5C4)[C@H]3O)[C@](C)(O)C[C@@H](C)CN[C@H](C)[C@@H](O)[C@](C)(O)[C@@H](CC)OC(=O)[C@@H]2C)C[C@@]1(C)OC [Example I-7, N-((2S,3R,4S,6R)-2-(((2R,3S,4R,5R,8R,10R,11R,12S,13S,14R)-2-ethyl-3,4,10-trihydroxy-13-(((2R,4R,5S,6S)-5-hydroxy-4-methoxy-4,6-dimethyl-5-((propylamino)methyl)tetrahydro-2H-pyran-2-yl)oxy)-3,5,8,10,12,14-hexamethyl-15-oxo-1-oxa-6-azacyclopentadecan-11-yl)oxy)-3-hydroxy-6-methyltetrahydro-2H-pyran-4-yl)-N-methylisoindoline-2-carboxamide] | 6
70 | 250 | CC[C@H]1OC(=O)[C@H](C)[C@@H](O[C@H]2C[C@@](C)(OC)[C@](O)(CN3CCN(C)CC3)[C@H](C)O2)[C@H](C)[C@@H](O[C@@H]2O[C@H](C)C[C@H](N(C)C(=O)NC3CCCCC3)[C@H]2O)[C@](C)(O)C[C@@H](C)CN[C@H](C)[C@@H](O)[C@]1(C)O [Example J-1, 3-cyclohexyl-1-((2S,3R,4S,6R)-2-(((2R,3S,4R,5R,8R,10R,11R,12S,13S,14R)-2-ethyl-3,4,10-trihydroxy-13-(((2R,4R,5S,6S)-5-hydroxy-4-methoxy-4,6-dimethyl-5-((4-methylpiperazin-1-yl)methyl)tetrahydro-2H-pyran-2-yl)oxy)-3,5,8,10,12,14-hexamethyl-15-oxo-1-oxa-6-azacyclopentadecan-11-yl)oxy)-3-hydroxy-6-methyltetrahydro-2H-pyran-4-yl)-1-methylurea] | 200
> 500 | > 500 | CCNC(=O)N(C)[C@H]1C[C@@H](C)O[C@@H](O[C@@H]2[C@@H](C)[C@H](O[C@H]3C[C@@](C)(OC)[C@](O)(CN4CCN(C)CC4)[C@H](C)O3)[C@@H](C)C(=O)O[C@H](CC)[C@@](C)(O)[C@H](O)[C@@H](C)NC[C@H](C)C[C@@]2(C)O)[C@@H]1O [Example J-2, 3-ethyl-1-((2S,3R,4S,6R)-2-(((2R,3S,4R,5R,8R,10R,11R,12S,13S,14R)-2-ethyl-3,4,10-trihydroxy-13-(((2R,4R,5S,6S)-5-hydroxy-4-methoxy-4,6-dimethyl-5-((4-methylpiperazin-1-yl)methyl)tetrahydro-2H-pyran-2-yl)oxy)-3,5,8,10,12,14-hexamethyl-15-oxo-1-oxa-6-azacyclopentadecan-11-yl)oxy)-3-hydroxy-6-methyltetrahydro-2H-pyran-4-yl)-1-methylurea] | >500
> 500 | > 500 | CC[C@H]1OC(=O)[C@H](C)[C@@H](O[C@H]2C[C@@](C)(OC)[C@](O)(CN3CCN(C)CC3)[C@H](C)O2)[C@H](C)[C@@H](O[C@@H]2O[C@H](C)C[C@H](N(C)C(N)=O)[C@H]2O)[C@](C)(O)C[C@@H](C)CN[C@H](C)[C@@H](O)[C@]1(C)O [Example J-5, 1-((2S,3R,4S,6R)-2-(((2R,3S,4R,5R,8R,10R,11R,12S,13S,14R)-2-ethyl-3,4,10-trihydroxy-13-(((2R,4R,5S,6S)-5-hydroxy-4-methoxy-4,6-dimethyl-5-((4-methylpiperazin-1-yl)methyl)tetrahydro-2H-pyran-2-yl)oxy)-3,5,8,10,12,14-hexamethyl-15-oxo-1-oxa-6-azacyclopentadecan-11-yl)oxy)-3-hydroxy-6-methyltetrahydro-2H-pyran-4-yl)-1-methylurea] | >500
225 | > 500 | CC[C@H]1OC(=O)[C@H](C)[C@@H](O[C@H]2C[C@@](C)(OC)[C@](O)(CN3CCN(C)CC3)[C@H](C)O2)[C@H](C)[C@@H](O[C@@H]2O[C@H](C)C[C@H](N(C)C(=O)Nc3ccc(N(C)C)cc3)[C@H]2O)[C@](C)(O)C[C@@H](C)CN[C@H](C)[C@@H](O)[C@]1(C)O [Example J-6, 3-(4-(dimethylamino)phenyl)-1-((2S,3R,4S,6R)-2-(((2R,3S,4R,5R,8R,10R,11R,12S,13S,14R)-2-ethyl-3,4,10-trihydroxy-13-(((2R,4R,5S,6S)-5-hydroxy-4-methoxy-4,6-dimethyl-5-((4-methylpiperazin-1-yl)methyl)tetrahydro-2H-pyran-2-yl)oxy)-3,5,8,10,12,14-hexamethyl-15-oxo-1-oxa-6-azacyclopentadecan-11-yl)oxy)-3-hydroxy-6-methyltetrahydro-2H-pyran-4-yl)-1-methylurea] | >500
> 500 | > 500 | CC[C@H]1OC(=O)[C@H](C)[C@@H](O[C@H]2C[C@@](C)(OC)[C@](O)(CN3CCN(C)CC3)[C@H](C)O2)[C@H](C)[C@@H](O[C@@H]2O[C@H](C)C[C@H](N(C)C(=O)Nc3cccnc3)[C@H]2O)[C@](C)(O)C[C@@H](C)CN[C@H](C)[C@@H](O)[C@]1(C)O [Example J-8, 1-((2S,3R,4S,6R)-2-(((2R,3S,4R,5R,8R,10R,11R,12S,13S,14R)-2-ethyl-3,4,10-trihydroxy-13-(((2R,4R,5S,6S)-5-hydroxy-4-methoxy-4,6-dimethyl-5-((4-methylpiperazin-1-yl)methyl)tetrahydro-2H-pyran-2-yl)oxy)-3,5,8,10,12,14-hexamethyl-15-oxo-1-oxa-6-azacyclopentadecan-11-yl)oxy)-3-hydroxy-6-methyltetrahydro-2H-pyran-4-yl)-1-methyl-3-(pyridin-3-yl)urea] | >500
122 | > 250 | CC[C@H]1OC(=O)[C@H](C)[C@@H](O[C@H]2C[C@@](C)(OC)[C@](O)(CN3CC(N(C)C)C3)[C@H](C)O2)[C@H](C)[C@@H](O[C@@H]2O[C@H](C)C[C@H](N(C)C(=O)N(C)c3ccccc3)[C@H]2O)[C@](C)(O)C[C@@H](C)CN[C@H](C)[C@@H](O)[C@]1(C)O [Example J-26, 1-((2S,3R,4S,6R)-2-(((2R,3S,4R,5R,8R,10R,11R,12S,13S,14R)-13-(((2R,4R,5S,6S)-5-((3-(dimethylamino)azetidin-1-yl)methyl)-5-hydroxy-4-methoxy-4,6-dimethyltetrahydro-2H-pyran-2-yl)oxy)-2-ethyl-3,4,10-trihydroxy-3,5,8,10,12,14-hexamethyl-15-oxo-1-oxa-6-azacyclopentadecan-11-yl)oxy)-3-hydroxy-6-methyltetrahydro-2H-pyran-4-yl)-1,3-dimethyl-3-phenylurea] | 100
